Where a name gives a salt, the structure may show the parent alone.

SSTR5, sequence (P35346 whole entry): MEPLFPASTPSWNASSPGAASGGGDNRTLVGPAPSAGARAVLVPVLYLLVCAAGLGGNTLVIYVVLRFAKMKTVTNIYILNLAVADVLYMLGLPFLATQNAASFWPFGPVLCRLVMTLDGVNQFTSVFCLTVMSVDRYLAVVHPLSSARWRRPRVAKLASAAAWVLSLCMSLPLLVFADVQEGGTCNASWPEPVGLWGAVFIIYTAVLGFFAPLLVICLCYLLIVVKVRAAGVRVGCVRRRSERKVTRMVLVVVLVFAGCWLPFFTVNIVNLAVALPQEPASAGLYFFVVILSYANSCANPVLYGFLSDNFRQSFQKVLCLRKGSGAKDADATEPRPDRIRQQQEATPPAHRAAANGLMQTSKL

This experiment addresses SSTR5 (Homo sapiens (Human), UniProt P35346). The experiment can be described thus: SSTR5 binding assay. To be noted: CHO-K1 membranes expressing cloned human SSTR5. The method, then:
The receptor-ligand binding assays of all 5 subtype of SSTRs were performed with membranes isolated from Chinese hamster ovary (CHO)-K1 cells stably expressing the cloned human somatostatin receptors in 96-well format as previous reported.
The stable cell lines for SSTR1-SSTR5 were developed by stably transfecting with DNA for all five SSTRs using Lipofectamine. […] The assay buffer consisted of 50 mM TrisHCl (pH 7.8) with 1 mM EGTA, […] MgCl2, leupeptin (10 μg/mL), pepstatin (10 μg/mL), bacitracin (200 μg/mL), and aprotinin (0.5 μg/mL). CHO-K1 cell membranes, radiolabeled somatostatin, and unlabeled test compounds were resuspended or diluted in this assay buffer. Unlabeled test compounds were examined over a range of concentrations from 0.01 nM to 10,000 nM.
Compounds exemplified were tested in the SSTR5 binding assay.
`CC1(C)CC(C)(C)c2cc(CN3CCC4(CC3)CN(c3ccc(C(=O)O)cc3)C(=O)O4)ccc2O1` [Example 5-11, 4-{2-Oxo-8-[(2,2,4,4-tetramethyl-3,4-dihydro-2H-chromen-6-yl)methyl]-1-oxa-3,8-diazaspiro[4.5]dec-3-yl}benzoic acid, TFA salt]: the IC50 was determined as 14 nM. That is a double-digit nanomolar value. The same measure for `CCOc1ccc(-c2nccs2)c(CN2CCC3(CC2)CN(c2ccc(C(=O)O)cc2)C(=O)O3)c1` [Example 4-27, 4-{8-[5-Ethoxy-2-(1,3-thiazol-2-yl)benzyl]-2-oxo-1-oxa-3,8-diazaspiro[4.5]dec-3-yl}benzoic acid, TFA salt]: 1.5 nM; for `CC1(C)CCOc2c(Cl)cc(CN3CCC4(CC3)CN(c3ccc(C(=O)O)cc3)C(=O)O4)cc21` [Example 5-15, 4-{8-[(8-Chloro-4,4-dimethyl-3,4-dihydro-2H-chromen-6-yl)methyl]-2-oxo-1-oxa-3,8-diazaspiro[4.5]dec-3-yl}benzoic acid, TFA salt]: 1.25 nM.

For `CCOc1cc(CN2CCC3(CC2)CN(c2ccc(C(=O)O)cc2C)C(=O)O3)cc(OCC)c1-c1ccc(F)cc1` [Example 3-16, 4-{8-[(2,6-Diethoxy-4′-fluorobiphenyl-4-yl)methyl]-2-oxo-1-oxa-3,8-diazaspiro[4.5]dec-3-yl}-3-methylbenzoic acid, TFA salt], the IC50 came out at 1.18 nM. As for `O=C(O)c1ccc(N2CC3(CCN(Cc4cn(-c5ccc(F)cc5)nc4-c4ccc(F)cc4)CC3)OC2=O)cc1` [Example 1-20, 4-(8-{[1,3-Bis(4-fluorophenyl)-1H-pyrazol-4-yl]methyl}-2-oxo-1-oxa-3,8-diazaspiro[4.5]dec-3-yl)benzoic acid, TFA salt], the concentration for half-maximal inhibition (IC50) came to 5.33 nM. This IC50 is about 4.5-fold higher than that of the molecule before. `CC(C)(C)n1cc(CN2CCC3(CC2)CN(c2ccc(C(=O)O)cc2)C(=O)O3)c(-c2cc(F)c(F)cc2F)n1` [Example 1-7, 4-(8-{[1-tert-Butyl-3-(2,4,5-trifluorophenyl)-1H-pyrazol-4-yl]methyl}-2-oxo-1-oxa-3,8-diazaspiro[4.5]dec-3-yl)benzoic acid, TFA salt] returned an IC50 of 2.62 nM. As for `CC(C)(C)n1cc(CN2CCC3(CC2)CN(c2ccc(C(=O)O)c(F)c2)C(=O)O3)c(-c2ccc(F)c(F)c2F)n1` [Example 1-42, 4-(8-{[1-tert-Butyl-3-(2,3,4-trifluorophenyl)-1H-pyrazol-4-yl]methyl}-2-oxo-1-oxa-3,8-diazaspiro[4.5]dec-3-yl)-2-fluorobenzoic acid, TFA salt], the figure is 4.68 nM; as for `CCOc1cc(CN2CCC3(CC2)CN(c2ccc(C(=O)O)c(C)c2)C(=O)O3)cc(OCC)c1-c1ccc(F)cc1` [Example 3-8, 4-{8-[(2,6-Diethoxy-4′-fluorobiphenyl-4-yl)methyl]-2-oxo-1-oxa-3,8-diazaspiro[4.5]dec-3-yl}-2-methylbenzoic acid, TFA salt], 1.42 nM. `O=C(O)c1ccc(N2CC3(CCN(Cc4c(-c5ccccc5)nc5ccccn45)CC3)OC2=O)cc1` [Example 6-37, 4-{2-Oxo-8-[(2-phenylimidazo[1,2-a]pyridin-3-yl)methyl]-1-oxa-3,8-diazaspiro[4.5]dec-3-yl}benzoic acid, TFA salt] showed a 50% inhibitory concentration (IC50) of 13.4 nM. For the molecule `CCOc1cc(CN2CCC3(CC2)CN(c2ccc(C(=O)O)cc2)C(=O)O3)cc2c(OCC)cccc12` [Example 5-3, 4-{8-[(4,8-Diethoxynaphthalen-2-yl)methyl]-2-oxo-1-oxa-3,8-diazaspiro[4.5]dec-3-yl}benzoic acid, TFA salt], the half-maximal inhibitory concentration (IC50) is 0.98 nM.

Regarding `CCOc1cc(CN2CCC3(CC2)CN(c2ccc(C(=O)O)c(C(F)(F)F)c2)C(=O)O3)cc(OCC)c1-c1ccc(F)cc1` [Example 3-15, 4-{8-[(2,6-Diethoxy-4′-fluorobiphenyl-4-yl)methyl]-2-oxo-1-oxa-3,8-diazaspiro[4.5]dec-3-yl}-2-(trifluoromethyl)benzoic acid, TFA salt], the half-maximal inhibitory concentration (IC50) was 2.79 nM. The same measure for `CCOc1cc(CN2CCC3(CC2)CN(c2ccc(C(=O)O)c(OC)c2)C(=O)O3)cc(OCC)c1-c1ccc(F)cc1` [Example 3-20, 4-{8-[(2,6-Diethoxy-4′-fluorobiphenyl-4-yl)methyl]-2-oxo-1-oxa-3,8-diazaspiro[4.5]dec-3-yl}-2-methoxybenzoic acid, TFA salt]: 0.129 nM. As for `CC(C)n1cc(CN2CCC3(CC2)CN(c2ccc(C(=O)O)cc2)C(=O)O3)c2c(OCc3ccccc3)cccc21` [Example 6-18, 4-(8-{[4-(Benzyloxy)-1-(propan-2-yl)-1H-indol-3-yl]methyl}-2-oxo-1-oxa-3,8-diazaspiro[4.5]dec-3-yl)benzoic acid, TFA salt], the figure is 0.225 nM; as for `CCOc1cc(CN2CCC3(CC2)CN(c2ccc(C4(C(=O)O)CC4)cc2)C(=O)O3)cc(OCC)c1-c1ccc(F)cc1` [Example 3-10, 1-(4-{8-[(2,6-Diethoxy-4′-fluorobiphenyl-4-yl)methyl]-2-oxo-1-oxa-3,8-diazaspiro[4.5]dec-3-yl}phenyl)cyclopropanecarboxylic acid, TFA salt], 8.41 nM. As to `Cc1cc(-c2ccc(F)nc2)c(CN2CCC3(CC2)CN(c2ccc(C(=O)O)cc2)C(=O)O3)cc1Cl` [Example 4-25, 4-{8-[5-Chloro-2-(6-fluoropyridin-3-yl)-4-methylbenzyl]-2-oxo-1-oxa-3,8-diazaspiro[4.5]dec-3-yl}benzoic acid, TFA salt], the half-inhibitory concentration (IC50) is 1.31 nM. Turning to `CC(C)Oc1ccc(-c2ccc(F)c(F)c2F)c(CN2CCC3(CC2)CN(c2ccc(C(=O)O)cc2)C(=O)O3)c1` [Example 4-6, 4-{8-[(4-(Prop-2-yloxy)-2′,3′,4′-trifluorobiphenyl-2-yl)methyl]-2-oxo-1-oxa-3,8-diazaspiro[4.5]dec-3-yl}benzoic acid, TFA salt], the IC50 stood at 0.546 nM.

In the case of `CCOc1ccc(-c2ccc(F)c(F)c2)c(CN2CCCC3(CC2)CN(c2ccc(C(=O)O)cc2)C(=O)O3)c1` (stereo not drawn) [Example 2-13, 4-{8-[(4-Ethoxy-3′,4′-difluorobiphenyl-2-yl)methyl]-2-oxo-1-oxa-3,8-diazaspiro[4.6]undec-3-yl}benzoic acid, TFA salt], the 50% inhibitory concentration (IC50) stood at 26.1 nM. As for `CCOc1cc(CN2CCC3(CC2)CN(c2ccc(C(=O)O)c(C)c2)C(=O)O3)c(-c2ccc(F)c(F)c2F)cc1C` [Example 4-12, 4-{8-[(4-Ethoxy-2′,3′,4′-trifluoro-5-methylbiphenyl-2-yl)methyl]-2-oxo-1-oxa-3,8-diazaspiro[4.5]dec-3-yl}-2-methylbenzoic acid, TFA salt], the figure is 0.188 nM. The same measure for `CCOc1ccc(-c2ccc(F)c(F)c2F)c(CN2CCC3(CC2)CN(c2ccc(C(=O)O)cc2)C(=O)O3)n1` [Example 4-2, 4-(8-{[6-Ethoxy-3-(2,3,4-trifluorophenyl)pyridin-2-yl]methyl}-2-oxo-1-oxa-3,8-diazaspiro[4.5]dec-3-yl)benzoic acid, TFA salt]: 13.2 nM.

In turn, `CCOc1cc(CN2CCC3(CC2)CN(c2ccccc2C(=O)O)C(=O)O3)cc(OCC)c1-c1ccc(F)cc1` [Example 3-3, 2-{8-[(2,6-Diethoxy-4′-fluorobiphenyl-4-yl)methyl]-2-oxo-1-oxa-3,8-diazaspiro[4.5]dec-3-yl}benzoic acid, TFA salt] displayed an IC50 of 229 nM. As for `CC(C)n1nc(CN2CCC3(CC2)CN(c2ccc(C(=O)O)cc2)C(=O)O3)c2ccc(C#N)cc21` [Example 6-9, 4-(8-{[6-Cyano-1-(propan-2-yl)-1H-indazol-3-yl]methyl}-2-oxo-1-oxa-3,8-diazaspiro[4.5]dec-3-yl)benzoic acid, TFA salt], the figure is 121 nM.

As for `O=C(O)c1ccc(N2CC3(CCN(Cc4cn(C5CCCCC5)nc4-c4ccc(C(F)(F)F)cc4)CC3)OC2=O)cc1` [Example 1-24, 4-[8-({1-Cyclohexyl-3-[4-(trifluoromethyl)phenyl]-1H-pyrazol-4-yl}methyl)-2-oxo-1-oxa-3,8-diazaspiro[4.5]dec-3-yl]benzoic acid, TFA salt], the IC50 stood at 2.01 nM. `CC(C)n1nc(Cc2cc(F)c(F)cc2F)c(CN2CCC3(CC2)CN(c2ccc(C(=O)O)cc2)C(=O)O3)c1Cl` [Example 1-45, 4-(8-{[5-Chloro-1-(propan-2-yl)-3-(2,4,5-trifluorobenzyl)-1H-pyrazol-4-yl]methyl}-2-oxo-1-oxa-3,8-diazaspiro[4.5]dec-3-yl)benzoic acid, TFA salt]: the IC50 is 23 nM. For the molecule `CC(C)(C)n1cc(CN2CCC3(CC2)CN(c2ccc(C(=O)O)cn2)C(=O)O3)c(-c2ccc(F)c(F)c2F)n1` [Example 1-43, 6-(8-{[1-tert-Butyl-3-(2,3,4-trifluorophenyl)-1H-pyrazol-4-yl]methyl}-2-oxo-1-oxa-3,8-diazaspiro[4.5]dec-3-yl)pyridine-3-carboxylic acid, TFA salt], the IC50 turned out to be 2.88 nM. The molecule `O=C(O)c1ccc(N2CC3(CCN(Cc4cn(-c5ccccc5)nc4-c4ccc(F)c(Cl)c4)CC3)OC2=O)cc1` [Example 1-34, 4-(8-{[3-(3-Chloro-4-fluorophenyl)-1-phenyl-1H-pyrazol-4-yl]methyl}-2-oxo-1-oxa-3,8-diazaspiro[4.5]dec-3-yl)benzoic acid, TFA salt] had an IC50 of 4.67 nM.

In turn, `CC1(C)Cc2cc(CN3CCC4(CC3)CN(c3ccc(C(=O)O)cc3)C(=O)O4)ccc2O1` [Example 5-18, 4-{8-[(2,2-Dimethyl-2,3-dihydro-1-benzofuran-5-yl)methyl]-2-oxo-1-oxa-3,8-diazaspiro[4.5]dec-3-yl}benzoic acid, TFA salt] returned an IC50 of 45.3 nM. In turn, `O=C(O)c1ccc(N2CC3(CCN(Cc4cn(C5CCCCC5)nc4-c4ccc(F)c(Cl)c4)CC3)OC2=O)cc1` [Example 1-2, 4-(8-{[3-(3-Chloro-4-fluorophenyl)-1-cyclohexyl-1H-pyrazol-4-yl]methyl}-2-oxo-1-oxa-3,8-diazaspiro[4.5]dec-3-yl)benzoic acid, TFA salt] showed a half-inhibitory concentration (IC50) of 0.943 nM. This IC50 lies about 48-fold lower than the previous one.

By IC50 is commonly meant the concentration needed to halve the response being measured. A high value points to a need for much substance.

Values taken from patent US8742110B2, “Spiroxazolidinone compounds” (Merck Sharp & Dohme Corp., priority 2010, dated 2014).
